Here are results for 1 substance from patent US9464112B2, “Peptides having NF-κB inhibitory activity, or composition comprising same” (KNU-INDUSTRY COOPERATION FOUNDATION, priority 2012, dated 2016).

What all share (format): cell-based
One assay concerns TNF-α. The assay is described as follows: TNF-α expression in UVB-irradiated human keratinocytes HaCaT (Western blotting). Particulars: UVB 312 nm 12.5 mJ/cm^2, 48 hours, peptide 0.1˜2 μM, dose-dependent. The procedure: (§1) We evaluated the inhibitory activities of the peptide of the present invention on expressions of the representative pro-inflammatory factors, i.e., TNF-α and IL-1α, the expressions of which are induced by ultraviolet stimulation. Specifically, the HaCaT cells (Molecular Biology Engineering Lab, Chemical & Biochemical Engineering, Dongguk University) were irradiated with UVB (312 nm, 12.5 mJ/cm^2) and then treated with the peptide of SEQ ID NO: 1 in the concentrations of 0.1˜2 μM. At this time, the control group was treated with dexamethasone (Dex) having the immunosuppressive function, at the irradiation of UVB. After 48 hours, the cell extracts were subject to the Western blotting assay so as to measure the expressions of TNF-α and IL-1α.
On the technique in general: In western blotting, separated proteins are transferred to a membrane and probed.

The subject of the next assay is procollagen type-1. The assay is described as follows: Procollagen type-1 expression in UVB-irradiated human dermal fibroblasts (Western blotting). As to conditions: peptide 0.1˜2 μM, UVB 312 nm 12.5 mJ/cm^2, 48 hours, dose-dependent. An excerpt: (§2) It is known that MMP-1, the expression of which is induced by ultraviolet stimulation in human dermal fibroblasts, degrades collagen fibers to facilitate cutaneous photoaging as well as wrinkle formation. Since the expression of MMP-1 is induced by NF-κB activation, we evaluate the inhibition thereof by the treatment of the peptides of the present invention, using human dermal fibroblasts (ATCC PCS-201-012, USA).
(§3) The human dermal fibroblasts was irradiated with UVB (312 nm, 12.5 mJ/cm^2) and then treated with the peptide of SEQ ID NO: 1 in the concentrations of 0.1˜2 μM. After 48 hours, the cell extracts were subject to the Western blotting assay so as to measure the expressions of MMP-1 and procollagen type-1. […] Therefore, it can be seen that the peptide of the present invention can inhibit ultraviolet radiation-induced cutaneous photoaging.

In another assay the test system is PGE2. In words: PGE2 formation in UVB-irradiated human keratinocytes HaCaT (enzyme immunoassay). As to conditions: peptide 0.1˜2 μM, dose-dependent. The procedure:
as §1
(§4) And also, the cell extracts were subject to the enzyme immunoassay so as to evaluate the inhibitory effects on formation of PGE2 (one of pro-inflammatory factors). For this assay, we also used the group treated with dexamethasone at the irradiation of UVB as a control group. In addition, the expression of COX-2 (which is a PGE2 formation-mediating enzyme) was measured through the Western blotting assay; and the results thereof are shown in FIG. 8.

For the next assay, the system named is IL-1α. The assay is described as follows: IL-1α expression in UVB-irradiated human keratinocytes HaCaT (Western blotting). As to conditions: UVB 312 nm 12.5 mJ/cm^2, 48 hours, peptide 0.1˜2 μM, dose-dependent. The procedure:
as §1

The test system of the next assay is COX-2. In words: COX-2 expression in UVB-irradiated human keratinocytes HaCaT (Western blotting). As to conditions: peptide 0.1˜2 μM, dose-dependent. The procedure:
as §1, §4

For a further assay, the system named is MMP-1. In words: MMP-1 expression in UVB-irradiated human dermal fibroblasts (Western blotting). As to conditions: peptide 0.1˜2 μM, UVB 312 nm 12.5 mJ/cm^2, 48 hours, dose-dependent.
Text: as §2, §3

As for “Arg-Phe-Arg (RFR; Peptide fragment) [SEQ ID NO: 1, peptide fragment derived from the NF-κB p65 subunit]”, in the assay on TNF-α, the “expression of TNF-α” value is “reduced”. Besides, in the assay with procollagen type-1, the “expression of procollagen type-1” value was “increased”. Moreover, the “PGE2 formation increased by ultraviolet stimulation” value in the assay on PGE2 is listed as “reduced”. Besides, in the assay on IL-1α, the “expression of IL-1α” value is recorded as “reduced”. The “expression of COX-2” value in the assay on COX-2 is reported as “reduced”. The “expression of MMP-1 increased by ultraviolet stimulation” value with MMP-1 is “reduced”.
